Assay results: PubChem BioAssay AID1996
In brackets after ≈: the same amount, converted by molar mass.

Conditions: buffer; pH 7.4; 200.0 µM

| Structure (SMILES) | solubility kinetic [µg/mL] |
| --- | --- |
| Cc1cc(SCc2cccc(Cl)c2)nc(=O)[nH]1 | 39.9 (≈ 150 µM) |
| COc1ccccc1C(=O)NCc1ccco1 | > 34.7 |
| OC(CNCc1ccc2c(c1)OCO2)COc1ccccc1 (stereo not drawn) | > 45.2 |
| O=C(CN1C(=O)S/C(=C\c2ccccn2)C1=O)Nc1ccccc1 | 1.5 (≈ 4.42 µM) |
| Cc1ccc(C)c(N2C(=O)CC(Cc3ccccc3)C2=O)c1.Cl (stereo not drawn) | > 49.5 |
| COc1ccc(C2CC(=O)C(C=NCCCO)=C(O)C2)cc1 (stereo not drawn) | > 45.5 |
| COc1ccc(-n2nc(C(=O)N(C)C)nc2-c2ccccc2)cc1 | > 48.4 |
| Cc1ccsc1C(=O)Nc1ccc(OCc2ccccc2)cc1 | < 0.7 |
| CCC(NC(=O)Nc1cc(C)on1)(C(F)(F)F)C(F)(F)F | 14.6 (≈ 45.7 µM) |
| Cc1ccc(/C(N)=N/OC(=O)CCCc2ccccc2)cc1 | 2 (≈ 6.75 µM) |
| CN(Cc1cccc(Cl)c1Cl)C(=O)c1cc(S(=O)(=O)N2CCOCC2)ccc1F | 5.2 (≈ 11.3 µM) |
| Cc1nnc(SCC(=O)Nc2ccc(OC(F)F)c(Cl)c2)n(N)c1=O | > 58.8 |
| O=C(O)c1ccc2[nH]c3c(c2c1)CCCC3 | > 32.3 |
| CCOc1ccc(C)cc1S(=O)(=O)NC1CCCCCC1 | 2.2 (≈ 7.06 µM) |
| O=C(c1cc(Br)c[nH]1)N1CCCCC1 | > 38.6 |
| COc1ccccc1NC(=O)NC1CCCc2ccccc21 (stereo not drawn) | 0.8 (≈ 2.7 µM) |
| COc1ccc(NC(=O)c2ccc3c(c2)OCO3)cc1S(=O)(=O)N1CCOCC1 | 14.7 (≈ 35 µM) |
| O=C(NC1CC1)C1CCN(C(=O)c2ccc(Cl)cc2)CC1 | 45.8 (≈ 149 µM) |
| O=C(CNC(=O)c1ccccc1)NCCCSc1ccccc1 | 25.2 (≈ 76.7 µM) |
| O=S(=O)(Nc1ccc2c(c1)OCCO2)c1ccc(F)c(F)c1 | > 49.1 |
| CCOC(=O)C(=O)Nc1ccccc1C(=O)OCC | > 39.8 |
| CC(=O)c1c(C)[nH]c(C(=O)OCCOc2ccccc2)c1C | 1.3 (≈ 4.31 µM) |
| CCNC(=O)N1CCCC(C(=O)c2ccc(OC)c(OC)c2)C1 (stereo not drawn) | 35 (≈ 109 µM) |
| Cc1ccc(C(C)NC(=O)c2cccs2)cc1C (stereo not drawn) | 5.7 (≈ 22 µM) |

| Structure (SMILES) | solubility kinetic [µg/mL] |
| --- | --- |
| Cc1ccc(-c2csc(CC(N)=O)n2)cc1 | > 34.8 |
| NS(=O)(=O)c1ccc(NC(=O)C(=O)NCCC(=O)O)cc1 | > 47.3 |
| O=c1cc(-c2ccccc2)nc(/C=C/c2ccccc2)[nH]1 | 0.4 (≈ 1.46 µM) |
| COC(=O)CCC(=O)NC(=S)Nc1ccc(S(=O)(=O)Nc2cc(C)on2)cc1 | 57.4 (≈ 135 µM) |
| Cc1nc(SCCOc2ccccc2F)[nH]c(=O)c1Cc1ccccc1 | 0.6 (≈ 1.62 µM) |
| Cc1ccc2[nH]c(C(=O)Nc3ccc(F)cc3)cc2c1 | < 0.3 |
| O=C(Nc1ccc(Nc2ccccc2)cc1)c1ccc(Cl)cc1 | 0.4 (≈ 1.24 µM) |
| COc1cccc(Oc2ncnc(N)c2[N+](=O)[O-])c1 | 31 (≈ 118 µM) |
| O=C(NC1CCC(O)CC1)c1cc(Cl)c2c(c1)OCCO2 (stereo not drawn) | 35.6 (≈ 114 µM) |
| O=C(Nn1cnc2ccccc2c1=O)c1ccccc1F | > 42.5 |
| Cc1cc(C)nc(Nc2ccccc2Cl)n1.Cl | 10.4 |
| CCCN1C2CCCC1CC(NC(=S)NCCCOCC)C2 (stereo not drawn) | > 49.1 |
| COc1nc(OC)nc(N2CCC(C(=O)NC3CC3)CC2)n1 | 37 (≈ 120 µM) |
| O=C(O)CCCNC(=O)/C=C/c1ccco1 | 26.5 (≈ 119 µM) |
| O=C(O)CCC(=O)NCc1c(Cl)cccc1Sc1ccc(Cl)cc1 | 38.3 (≈ 99.7 µM) |
| CCOC(=O)Nc1ccc2c(c1)N(C(=O)CCN1CCOCC1)c1ccccc1S2 | > 64.1 |
| O=C(COC(=O)c1cc(=O)[nH]c(=O)[nH]1)Nc1ccccc1F | > 46.1 |
| CN1CC(=O)Nc2ccccc2C1=O | > 28.5 |
| O=C(COC(=O)c1cnccn1)NC1CCCc2ccccc21 (stereo not drawn) | > 46.7 |
| COc1ccccc1OCCCn1cc(C(C)=O)c2ccccc21 | 25.8 (≈ 79.8 µM) |
| Cc1cnc(NC(=O)c2ccc3c(c2)OCCO3)s1 | 4.4 (≈ 15.9 µM) |
| CSc1ncc(Cl)c(C(=O)Nc2cccc(Cl)c2)n1 | 1.1 (≈ 3.5 µM) |
| Cc1ccc(OCCNC(=O)c2ccc(C)o2)cc1 | > 38.9 |
| CN(Cc1nc2ccccc2n1C)C(=O)c1ccco1 | 39.9 (≈ 148 µM) |
